Experimental data: PMC5786495 (Cell, 2017)

Tested on: NKI2 TCR-transduced peripheral blood lymphocytes
Assay: IFNγ production by NKI2-transduced lymphocytes with peptide-loaded JY cells
Type: cell-based, human
Settings: NKI2 transduced T cells

## ALDSRSEHFM
  potency of stimulation relative to CDK4 neoantigen ALDPHSGHFV: as potently as the CDK4 neoantigen
